Results reported in US11918581B2, “Combination therapy comprising JAK pathway inhibitor and rock inhibitor” (Incyte Corporation, priority 2021, dated 2024).
pIC50: −log10 of the molar value. “Also recorded” adds a separate entry of the source. Where two headings read alike, the source gives them in different places.

Columns and labels:
[1] = biological target: human JAK2 (a.a. 828-1132) (Homo sapiens (Human), UniProt O60674); assay: In vitro JAK kinase assay (HTRF), JAK2; assay type: biochemical; conditions: JAK2/JAK1 IC50 ratio, 1 mM ATP
Protocol: (§1) The catalytic activity of JAK1, JAK2, or JAK3 was assayed by measuring the phosphorylation of a biotinylated peptide. The phosphorylated peptide was detected by homogenous time resolved fluorescence (HTRF). […] Reactions are carried out at room temperature for 1 hour and then stopped with 20 μL 45 mM EDTA, 300 nM SA-APC, 6 nM Eu-Py20 in assay buffer (Perkin Elmer, Boston, MA). Binding to the Europium labeled antibody takes place for 40 minutes and HTRF signal was measured on a Fusion plate reader (Perkin Elmer, Boston, MA).

[2] = biological target: human JAK1 (a.a. 837-1142) (Homo sapiens, UniProt P23458); assay: In vitro JAK kinase assay (HTRF), JAK1; assay type: biochemical; conditions: 1 mM ATP
Protocol: as §1

acute GVHD (aGVHD) = conditions: patients, cited from earlier work
GVHD = conditions: 60 mg/kg per day or 120 mg/kg per day; prophylactic and therapeutic dosing; cited from earlier work
[3] = system: sclerodermatous chronic GVHD; assay: Example 1: murine model of sclerodermatous chronic GVHD, itacitinib and belumosudil; assay type: in vivo, C57Bl/6 mice; conditions: PO d21-56; itacitinib 120 mg/kg BID, belumosudil 150 mg/kg QD; FIG. 1
Protocol: The effects of therapeutic dosing of a selective JAK1 inhibitor (itacitinib), a ROCK2 inhibitor (belumosudil), and a combination the selective JAK1 inhibitor and ROCK2 inhibitor (itacitinib+belumosudil) combination were tested in a murine model of sclerodermatous chronic GVHD. Sclerodermatous chronic GVHD was induced in C57Bl/6 mice using a single acute dose of 8.5 Gy of total body irradiation on Day −1. On Day 0, recipient mice were given an intravenous injection of a combination of splenocytes and bone marrow cells from donor LP/J mice. Starting at day 21, animals were dosed with vehicle, itacitinib, belumosudil, or the combination of both itacitinib and belumosudil (P.O., B.I.D, see Table 2). All animals were monitored on a daily basis to record weight change, survival and GVHD score (see Table 3). On days 33, 36, 39, 42 and 45 all animals were photographed under isoflurane anesthesia to assess disease severity. [table] [table]

[4] = system: sclerodermatous chronic GVHD; assay: Example 2: murine model of sclerodermatous chronic GVHD, ruxolitinib and belumosudil; assay type: in vivo, C57Bl/6 mice; conditions: PO d21-56; ruxolitinib 60 mg/kg BID, belumosudil 150 mg/kg QD; FIG. 3
Protocol: The effects of therapeutic dosing of a JAK1/2 inhibitor (ruxolitinib), a ROCK2 inhibitor (belumosudil), and a combination of the JAK1/2 inhibitor and ROCK2 inhibitor (ruxolitinib+belumosudil) combination were tested in a murine model of sclerodermatous chronic GVHD. Sclerodermatous chronic GVHD was induced in C57Bl/6 mice using a single acute dose of 8.5 Gy of total body irradiation on Day −1. On Day 0, recipient mice were given an intravenous injection of a combination of splenocytes and bone marrow cells from donor LP/J mice. Starting at day 21, animals were dosed with vehicle, ruxolitinib, belumosudil, or the combination of both ruxolitinib and belumosudil (P.O., B.I.D, see Table 4). All animals were monitored on a daily basis to record weight change, survival and GVHD score (see Table 5). On days 33, 36, 39, 42 and 45 all animals were photographed under isoflurane anesthesia to assess disease severity. [table] [table]

chronic GVHD (cGVHD) = conditions: patients; cited from earlier work
lung cGVHD = conditions: cited from earlier work

human JAK2 (a.a. 828-1132), sequence (O60674 828-1132): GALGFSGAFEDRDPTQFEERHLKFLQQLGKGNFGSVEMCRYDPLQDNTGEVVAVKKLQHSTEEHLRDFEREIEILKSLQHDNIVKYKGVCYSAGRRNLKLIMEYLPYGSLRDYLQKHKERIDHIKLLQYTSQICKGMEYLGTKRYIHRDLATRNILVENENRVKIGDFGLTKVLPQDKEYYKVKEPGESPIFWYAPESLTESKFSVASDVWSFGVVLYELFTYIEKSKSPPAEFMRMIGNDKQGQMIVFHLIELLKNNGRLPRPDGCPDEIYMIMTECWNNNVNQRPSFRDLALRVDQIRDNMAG

JAK2/JAK1 [1] | pIC50 [2] | Compound | clinical efficacy in acute GVHD (acute GVHD (aGVHD); listed as itacitinib) | GVHD score (GVHD) | GVHD score compared to vehicle-treated animals [3] | GVHD score compared to vehicle-treated animals [4] | clinical efficacy in chronic GVHD (chronic GVHD (cGVHD)) | clinical efficacy in acute GVHD (acute GVHD (aGVHD)) | increase in FEV1 (lung cGVHD; 1 patient) | responses (lung cGVHD; 5 pediatric patients (4 evaluable) with lung cGVHD) | patients able to wean steroids completely (lung cGVHD; 5 pediatric patients) | decrease of the steroid requirement (lung cGVHD; final patient)
>10 | > 8.00 | N#CCC1(n2cc(-c3ncnc4[nH]ccc34)cn2)CN(C2CCN(C(=O)c3ccnc(C(F)(F)F)c3F)CC2)C1 [Compound 1, {1-{1-[3-Fluoro-2-(trifluoromethyl)isonico-tinoyl]piperidin-4-yl}-3-[4-(7H-pyrrolo[2,3-d]pyrimidin-4-yl)-1H-pyrazol-1-yl]azetidin-3-yl}acetonitrile] | clinical efficacy; also recorded: significant clinical activity | improvement in the GVHD score | reduction in GVHD scores | – | – | – | – | – | – | –
– | – | CC(C)NC(=O)COc1cccc(-c2nc(Nc3ccc4[nH]ncc4c3)c3ccccc3n2)c1 [belumosudil, 2-(3-(4-((1H-indazol-5-yl)amino)quinazolin-2-yl)phenoxy)-N-isopropylacetamide, reference compound] | – | – | reduction in GVHD scores | no benefit | – | – | – | – | – | –
– | – | N#CC[C@H](C1CCCC1)n1cc(-c2ncnc3[nH]ccc23)cn1 [ruxolitinib, (R)-3-(4-(7H-pyrrolo[2,3-d]pyrimidin-4-yl)-1H-pyrazol-1-yl)-3-cyclopentylpropanenitrile] | – | – | – | numerical reduction in GVHD scores | clinical efficacy | clinical efficacy | 9% | 2 | Four out of five | > 50%
